Experimental findings from US20070010489A1 (priority 2002, published 2007) are described below.

One experiment concerns wild-type HIV-1 strain IIIB. The experiment in a line: microbe, parasite or virus in culture. In kind it is cell-based. The following applies: Human immunodeficiency virus 1, IIIB.
As to `CCOP(=O)(OCC)c1ccc(CN(C)CC(NC(=O)OC2COC3OCCC23)C(O)CN(CC(C)C)S(=O)(=O)c2ccc(OC)cc2)cc1` (centres unmarked), the EC50 (as a rule, the midpoint of the concentration-response curve) was less than 50 nM.
As for `CCOC(=O)C(C)NP(=O)(Cc1ccc(NCC(NC(=O)OC2COC3OCCC23)C(O)CN(CC(C)C)S(=O)(=O)c2ccc(OC)cc2)cc1)NC(C)C(=O)OCC` (centres unmarked), the EC50 fell in the range of 50 to 500 nM.
For the compound `COc1ccc(S(=O)(=O)N(CCN(C)C)CC(O)C(Cc2ccc(O)cc2)NC(=O)OC2COC3OCCC23)cc1` (centres unmarked), the EC50 lay in the range of 50 to 500 nM.
`COc1ccc(S(=O)(=O)N(CCN(C)C)CC(O)C(Cc2ccc(OCc3ccccc3)cc2)NC(=O)OC2COC3OCCC23)cc1` (centres unmarked): the EC50 was less than 50 nM.
`CC(C)CN(CC(O)C(Cc1ccccc1)NC(=O)OC1COC2OCCC12)S(=O)(=O)c1cccc(OCP(=O)(OCc2ccccc2)OCc2ccccc2)c1` (centres unmarked): the EC50 is less than 50 nM.
As for `COc1ccc(S(=O)(=O)N(CCN2CCOCC2)CC(O)C(Cc2ccc(OCP(=O)(OCc3ccccc3)OCc3ccccc3)cc2)NC(=O)OC2COC3OCCC23)cc1` (centres unmarked), the EC50 lay within 50 to 500 nM.
`COc1ccc(S(=O)(=O)N(CC(C)C)CC(O)C(Cc2ccccc2)NC(=O)OC2COC3OCCC23)cc1OCP(=O)(O)O` (centres unmarked) gave an EC50 of 50 to 500 nM.
`CC(C)CN(CC(O)C(Cc1ccccc1)NC(=O)OC1COC2OCCC12)S(=O)(=O)c1ccc(OCP(=O)(OCc2ccccc2)OCc2ccccc2)cc1` (centres unmarked) registered an EC50 of 50 to 500 nM.
On to `CC(C)CN(CC(O)C(Cc1ccc(O)cc1)NC(=O)OC1COC2OCCC12)S(=O)(=O)c1cccc(N)c1` (centres unmarked) [OH, m-NH2], for which the EC50 fell in the range of 50 to 500 nM.
`COc1ccc(S(=O)(=O)N(CC(C)C)CC(O)C(Cc2ccccc2)NC(=O)OC2COC3OCCC23)cc1O` (centres unmarked) yielded an EC50 of less than 50 nM.

Staying with this experiment, now noted: class symbols.
For `COc1ccc(S(=O)(=O)N(CC(C)C)CC(O)C(Cc2ccc(NCP(=O)(NC(C)C(=O)OC(C)C)Oc3ccccc3)cc2)NC(=O)OC2COC3OCCC23)cc1` (centres unmarked) [drawing 1821], the EC50 was 50 to 500 nM.

Staying with this experiment, now noted: read-out: Anti-HIV-1 Cell Culture Activity EC50.
For `CCCCOC(=O)C(CC(C)C)NP(=O)(COc1ccc(CC(NC(=O)OC2COC3OCCC23)C(O)CN(CC(C)C)S(=O)(=O)c2ccc(OC)cc2)cc1)NC(CC(C)C)C(=O)OCCCC` (centres unmarked) [Example 16h], the EC50 is 120 ± 42 nM.

The same experiment, now with this note: read-out: EC50.
As for `CC(C)CN(C[C@@H](O)[C@H](Cc1ccc(OCP(=O)(Oc2ccccc2)Oc2ccccc2)cc1)NC(=O)OC1CCOC1)S(=O)(=O)c1ccc(N)cc1` (some centres unmarked) [NH2, phenol], the EC50 lay within 50 to 500 nM.
Turning to `COc1ccc(S(=O)(=O)N(CC(C)C)C[C@@H](O)[C@H](Cc2ccc(OCP(=O)(OCc3ccccc3)OCc3ccccc3)cc2)NC(=O)OC2CCOC2)cc1` (some centres unmarked) [OMe, OBn], the EC50 was less than 50 nM.

The next experiment relates to mutant HIV-1 with I84V/L90M mutations. The experiment in a line: microbe, parasite or virus in culture. The settings on record: fold change. In kind it is cell-based.
With `COc1ccc(S(=O)(=O)N(CC(C)C)C[C@@H](O)[C@H](Cc2ccc(OCP(=O)(O)O)cc2)NC(=O)OC2CCOC2)cc1` (some centres unmarked) [OMe, OH], the I84V/L90M fold change result was “+++ (>30)”.
On to `CC(C)CN(C[C@@H](O)[C@H](Cc1ccc(OCP(=O)(Oc2ccccc2)Oc2ccccc2)cc1)NC(=O)OC1CCOC1)S(=O)(=O)c1ccc(N)cc1` (some centres unmarked) [NH2, phenol], for which the I84V/L90M fold change entry is given as “− (≦3)”.
`COc1ccc(S(=O)(=O)N(CC(C)C)C[C@@H](O)[C@H](Cc2ccc(OCP(=O)(OCc3ccccc3)OCc3ccccc3)cc2)NC(=O)OC2CCOC2)cc1` (some centres unmarked) [OMe, OBn]: the I84V/L90M fold change result is recorded as “++ (>10 to ≦30)”.
`COc1ccc(S(=O)(=O)N(CC(C)C)CC(O)C(Cc2ccccc2)NC(=O)OC2COC3OCCC23)cc1OCP(=O)(OCc1ccccc1)OCc1ccccc1` (centres unmarked): the I84V/L90M fold change result is given as “++ (>10 to ≦30)”.
Still for that read-out and setting: with `COc1ccc(S(=O)(=O)N(CCN(C)C)CC(O)C(Cc2ccc(O)cc2)NC(=O)OC2COC3OCCC23)cc1` (centres unmarked) the entry was “− (≦3)”.
The same measure, in the same setting: with `COc1ccc(S(=O)(=O)N(CCN(C)C)CC(O)C(Cc2ccc(OCc3ccccc3)cc2)NC(=O)OC2COC3OCCC23)cc1` (centres unmarked) the entry was “− (≦3)”.
On to `CC(C)CN(CC(O)C(Cc1ccccc1)NC(=O)OC1COC2OCCC12)S(=O)(=O)c1cccc(OCP(=O)(OCc2ccccc2)OCc2ccccc2)c1` (centres unmarked), for which the I84V/L90M fold change entry is “++ (>10 to ≦30)”.
In the case of `CC(C)CN(CC(O)C(Cc1ccccc1)NC(=O)OC1COC2OCCC12)S(=O)(=O)c1ccc(OCP(=O)(OCc2ccccc2)OCc2ccccc2)cc1` (centres unmarked), the I84V/L90M fold change result is “+++ (>30)”.

Still in this experiment, the particulars now being: fold difference in EC50 mutant vs wild type, class symbols.
`COc1ccc(S(=O)(=O)N(CC(C)C)CC(O)C(Cc2ccc(OCP(=O)(OC(C)C)OC(C)C)cc2)NC(=O)OC2COC3OCCC23)cc1` (centres unmarked) [drawing 1768 R1=OiPr R2=OiPr]: the I84V/L90M fold change result is “− (≦3)”.
As for `CCOP(=O)(OCC)c1ccc(CN(C)CC(NC(=O)OC2COC3OCCC23)C(O)CN(CC(C)C)S(=O)(=O)c2ccc(OC)cc2)cc1` (centres unmarked), the I84V/L90M fold change result is listed as “− (≦3)”.
Consider `CCOC(=O)C(C)NP(=O)(Cc1ccc(NCC(NC(=O)OC2COC3OCCC23)C(O)CN(CC(C)C)S(=O)(=O)c2ccc(OC)cc2)cc1)NC(C)C(=O)OCC` (centres unmarked), for which the I84V/L90M fold change result is given as “− (≦3)”.
In the case of `COc1ccc(S(=O)(=O)N(CC(C)C)CC(O)C(Cc2ccc(OCP(=O)(NC(C)C(=O)OC(C)C)Oc3ccccc3)cc2)NC(=O)OC2COC3OCCC23)cc1` (centres unmarked) [drawing 1774 R1=OPh R2=Ala-iPr], the I84V/L90M fold change entry is “− (≦3)”.

In the next experiment the target is 84V90M (Human immunodeficiency virus type 1 group M subtype B, UniProt P04585, I572V/L578M). The experiment in a line: cell-based. More on the design: species or system HIV. The settings on record: Cell-based assay (MT-4).
As to `CCOC(=O)C(C)NP(=O)(COc1cccc(CN2C(=O)N(Cc3ccc4[nH]nc(N)c4c3)C(Cc3ccccc3)C(O)C(O)C2Cc2ccccc2)c1)NC(C)C(=O)OCC` (centres unmarked) [m-bis-Ala-Et], the EC50 was greater than 6000 nM.
With `CCCCOC(=O)C(C)NP(=O)(COc1cccc(CN2C(=O)N(Cc3ccc4[nH]nc(N)c4c3)C(Cc3ccccc3)C(O)C(O)C2Cc2ccccc2)c1)NC(C)C(=O)OCCCC` (centres unmarked) [m-bis-Ala-Bu], the EC50 is greater than 6000 nM.
Still for that read-out and setting: the same measure for `CCOP(=O)(COc1ccc(CC2C(O)C(O)C(Cc3ccc(OC)cc3)N(Cc3cccnc3)C(=O)N2Cc2cccnc2)cc1)OCC` (centres unmarked) [OCH3, m-pyridine, OCH2PO3Et2]: 765 nM.
